Test results published in ChEMBL document CHEMBL5365451, “Discovery of CVN417, a Novel Brain-Penetrant α6-Containing Nicotinic Receptor Antagonist for the Modulation of Motor Dysfunction” (J Med Chem, 2023).

How the values were obtained:
[1] = Metabolic stability in rat liver microsome assessed as clearance at 10 uM incubated upto 2 hrs by LC-MS/MS analysis; assay type: ADME; details: liver microsomes, read-out: CLH
[2] = Antagonist activity at human alpha6-alpha3/beta2/beta3 V273S mutant nAChR expressed in HEK293 cells assessed as nicotine-induced intracellular calcium release incubated for 15 mins by FLIPR analysis; assay type: cell-based; details: HEK293, 0.25 h
[3] = Metabolic stability in human liver microsome assessed as clearance at 10 uM incubated upto 2 hrs by LC-MS/MS analysis; assay type: ADME; details: liver microsomes, read-out: CLH
Brain = experiment: Drug concentration in po dosed Sprague-Dawley rat brain measured after 2 hrs by LC-MS/MS analysis; assay type: functional, organism-based; details: dose 3-25 mg/kg
[4] = target: Neuronal acetylcholine receptor; alpha3/beta4 (Homo sapiens, UniProt P30926+P32297); experiment: Antagonist activity at human alpha3/beta4 nAChR expressed in HEK293 cells assessed as nicotine-induced intracellular calcium release incubated for 15 mins by FLIPR analysis; assay type: cell-based
Chain of Neuronal acetylcholine receptor; alpha3/beta4 (P30926 whole entry): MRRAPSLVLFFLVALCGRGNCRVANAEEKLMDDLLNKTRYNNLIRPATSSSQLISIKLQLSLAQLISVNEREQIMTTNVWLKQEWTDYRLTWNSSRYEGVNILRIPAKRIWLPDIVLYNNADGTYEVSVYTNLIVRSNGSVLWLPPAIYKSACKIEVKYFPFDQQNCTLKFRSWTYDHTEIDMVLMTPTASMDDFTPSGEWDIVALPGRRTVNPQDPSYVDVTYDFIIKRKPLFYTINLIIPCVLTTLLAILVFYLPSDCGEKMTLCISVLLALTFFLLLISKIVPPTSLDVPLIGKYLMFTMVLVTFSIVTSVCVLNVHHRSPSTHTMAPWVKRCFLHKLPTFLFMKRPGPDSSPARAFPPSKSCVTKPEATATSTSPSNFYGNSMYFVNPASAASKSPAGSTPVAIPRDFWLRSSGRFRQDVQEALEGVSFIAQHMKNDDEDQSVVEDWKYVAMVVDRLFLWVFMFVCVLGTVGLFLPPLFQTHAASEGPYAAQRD
Chain of Neuronal acetylcholine receptor; alpha3/beta4 (P32297 whole entry): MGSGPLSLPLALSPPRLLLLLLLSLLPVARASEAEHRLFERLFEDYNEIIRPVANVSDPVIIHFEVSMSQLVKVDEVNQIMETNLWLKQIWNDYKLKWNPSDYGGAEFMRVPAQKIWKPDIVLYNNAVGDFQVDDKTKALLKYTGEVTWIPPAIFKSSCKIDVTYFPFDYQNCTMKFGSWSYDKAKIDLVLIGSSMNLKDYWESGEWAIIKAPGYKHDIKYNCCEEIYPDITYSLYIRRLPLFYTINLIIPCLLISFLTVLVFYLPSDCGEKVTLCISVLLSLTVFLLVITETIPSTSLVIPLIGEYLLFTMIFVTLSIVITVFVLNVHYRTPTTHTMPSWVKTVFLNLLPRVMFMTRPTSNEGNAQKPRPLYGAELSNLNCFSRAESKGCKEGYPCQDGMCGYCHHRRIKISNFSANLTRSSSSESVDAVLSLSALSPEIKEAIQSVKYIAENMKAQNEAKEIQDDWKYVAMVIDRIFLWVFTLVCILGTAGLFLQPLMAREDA

Rattus norvegicus = experiment: Protection against tacrine-induced po dosed Sprague-Dawley rat tremulous jaw model assessed as decrease in tremor duration pretreated with compound for 90 mins followed by tacrine addition and measured after 5 mins; assay type: functional, organism-based; details: dose 3-25 mg/kg, time 95.0 min
[5] = target: Neuronal acetylcholine receptor; alpha4/beta2 (Homo sapiens, UniProt P17787+P43681); experiment: Antagonist activity at human alpha4/beta2 nAChR expressed in HEK293 cells assessed as nicotine-induced intracellular calcium release incubated for 15 mins by FLIPR analysis; assay type: cell-based
Chain of Neuronal acetylcholine receptor; alpha4/beta2 (P17787 whole entry): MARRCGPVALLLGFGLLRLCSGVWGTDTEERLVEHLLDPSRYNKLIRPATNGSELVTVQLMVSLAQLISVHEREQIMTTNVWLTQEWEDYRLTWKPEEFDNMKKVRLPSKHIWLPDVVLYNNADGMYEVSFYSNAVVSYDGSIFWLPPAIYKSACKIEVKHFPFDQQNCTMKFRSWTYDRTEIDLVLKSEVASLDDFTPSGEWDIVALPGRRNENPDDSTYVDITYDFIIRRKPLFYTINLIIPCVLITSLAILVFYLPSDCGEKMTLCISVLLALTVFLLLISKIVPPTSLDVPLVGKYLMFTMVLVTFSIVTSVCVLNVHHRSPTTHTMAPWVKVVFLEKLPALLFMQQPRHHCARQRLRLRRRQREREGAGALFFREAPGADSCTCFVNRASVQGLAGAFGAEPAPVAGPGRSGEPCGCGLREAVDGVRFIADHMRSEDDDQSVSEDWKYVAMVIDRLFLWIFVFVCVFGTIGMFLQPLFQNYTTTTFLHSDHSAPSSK
Chain of Neuronal acetylcholine receptor; alpha4/beta2 (P43681 whole entry): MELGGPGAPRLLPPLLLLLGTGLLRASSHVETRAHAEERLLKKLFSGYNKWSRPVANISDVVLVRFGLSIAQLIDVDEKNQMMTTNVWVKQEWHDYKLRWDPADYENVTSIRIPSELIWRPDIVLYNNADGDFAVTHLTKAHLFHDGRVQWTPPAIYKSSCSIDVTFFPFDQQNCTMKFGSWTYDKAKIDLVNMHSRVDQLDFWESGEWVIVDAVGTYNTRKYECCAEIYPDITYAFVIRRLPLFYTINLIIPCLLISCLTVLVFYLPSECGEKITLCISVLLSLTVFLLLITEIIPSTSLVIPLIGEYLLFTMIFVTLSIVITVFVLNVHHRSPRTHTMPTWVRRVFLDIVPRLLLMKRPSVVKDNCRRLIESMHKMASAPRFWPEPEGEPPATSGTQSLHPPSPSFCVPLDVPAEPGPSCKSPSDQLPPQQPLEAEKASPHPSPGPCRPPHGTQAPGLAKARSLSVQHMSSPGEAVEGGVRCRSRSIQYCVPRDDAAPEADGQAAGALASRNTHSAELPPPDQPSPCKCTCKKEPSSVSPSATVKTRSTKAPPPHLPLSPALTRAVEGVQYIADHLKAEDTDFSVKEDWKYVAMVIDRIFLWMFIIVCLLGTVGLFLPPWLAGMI

[6] = Oral bioavailability in Sprague-Dawley rat 3 mg/kg by LC-MS/MS analysis; assay type: ADME, organism-based; details: in vivo
[7] = Intrinsic clearance in Sprague-Dawley rat at 0.5 mg/kg, iv by LC-MS/MS analysis; assay type: ADME, organism-based; details: in vivo
[8] = Volume of distribution at steady state in Sprague-Dawley rat at 0.5 mg/kg, iv by LC-MS/MS analysis; assay type: ADME, organism-based; details: in vivo, read-out: Vdss
[9] = Drug exposure in Sprague-Dawley rat brain at 3 mg/kg, po measured for 2 hrs by LC-MS/MS analysis; assay type: ADME, organism-based; details: read-out: Drug uptake
[10] = Metabolic stability in rat liver microsome assessed as clearance preincubated for 60 mins followed by NADPH addition and measured after 60 mins by LC-MS/MS analysis; assay type: ADME; details: liver microsomes, time 120 min, read-out: CLH
[11] = Metabolic stability in human liver microsome assessed as clearance preincubated for 60 mins followed by NADPH addition and measured after 60 mins by LC-MS/MS analysis; assay type: ADME; details: liver microsomes, time 120 min, read-out: CLH

Compound	microsomal CLint at 10 µM [1]	IC50 [2]	microsomal CLint at 10 µM [3]	IC50 [4]	IC50 [5]	bioavailability [6]	CL [7]	Vd [8]	concentration at 2 h [9]	microsomal CLint [10]	microsomal CLint [11]	Drug uptake (Brain)	Activity (Rattus norvegicus)
[2H]C([2H])([2H])Oc1ccc(-c2cc(C(=O)N[C@H]3CCCN(C([2H])([2H])[2H])C3)nn2C([2H])([2H])[2H])c(Cl)c1	11 µL/min/mg	89 nM	0.7 µL/min/mg	–	–	–	–	–	–	–	–	–	–
COc1ccc(-c2cc(C(=O)N[C@H]3CCCN(C)C3)nn2C)cc1	–	194 nM	–	> 10000 nM	2620 nM	–	–	–	–	–	–	–	–
CN(C)C1(CNC(=O)c2cc(-c3ccc(C(F)(F)F)cc3)n(C)n2)CCCC1	–	183 nM	–	1410 nM	281 nM	27.8%	81.8 mL/min/kg	18.7 L/kg	30 nM	–	–	–	–
CN1CCC[C@@H](NC(=O)c2cc(-c3ccc(C(F)(F)F)cc3)n(C)n2)C1	–	80 nM	–	637 nM	2820 nM	> 100%	70 mL/min/kg	13.4 L/kg	1910 nM	3.5 µL/min/mg	21.4 µL/min/mg	–	–
Cc1ccc(C)c(Cn2nc(C)cc2C(=O)N[C@@H]2C[C@H]3CCC[C@@H](C2)N3C)c1	–	703 nM	–	–	–	–	–	–	–	–	–	–	–

More lines, in order of falling IC50 [2], values ahead:

microsomal CLint at 10 µM [1]	IC50 [2]	microsomal CLint at 10 µM [3]	IC50 [4]	IC50 [5]	bioavailability [6]	CL [7]	Vd [8]	concentration at 2 h [9]	microsomal CLint [10]	microsomal CLint [11]	Compound	Drug uptake (Brain)	Activity (Rattus norvegicus)
–	3840 nM	–	–	–	–	–	–	–	–	–	CN1CCC(NC(=O)c2cc(-c3ccc(C(F)(F)F)cc3)nn2C)CC1	–	–
–	132 nM	–	2450 nM	7720 nM	18.1%	47 mL/min/kg	18.5 L/kg	948 nM	31.2 µL/min/mg	28.9 µL/min/mg	CN1CCC(NC(=O)c2cc(-c3ccc(C(F)(F)F)cc3)n(C)n2)C1 (racemic)	–	–
< 6.4 µL/min/mg	94 nM	61.3 µL/min/mg	–	–	–	–	–	–	–	–	COc1ccc(-c2cc(C(=O)N[C@@H]3CN(C)CCC3(F)F)nn2C)c(Cl)c1	–	–
–	93 nM	–	422 nM	3730 nM	17.3%	40.5 mL/min/kg	13 L/kg	1090 nM	2.5 µL/min/mg	9.6 µL/min/mg	CN1CCC[C@H](NC(=O)c2cc(-c3ccc(C(F)(F)F)cc3)n(C)n2)C1	–	–
–	77 nM	–	2090 nM	563 nM	–	–	–	–	–	–	COc1ccc(-c2cc(C(=O)N[C@@H]3CCCN(C)C3)nn2C)c(Cl)c1	Dose-Dependent Effect	Dose-Dependent Effect
